Data set [1] has as its system patients with moderate to severe psoriasis vulgaris. Briefly: Phase 2a study LP0058-1072 (NCT02888236): orismilast 30 mg BID immediate release vs placebo, 16 weeks. In kind it is in vivo. The procedure:
In a phase 2a prospective, randomized, double-blind, placebo-controlled clinical trial (NCT02888236), patients with moderate-to-severe psoriasis were randomized to receive 30 mg twice per day orally in the form of an immediate release (IR) formulation or placebo over 16 weeks.
The modified-release formulation was studied in a clinical trial (LP0058-1442) and administered in a total of 36 healthy volunteers: 18 in part 1, 9 in part 2, and 9 in part 3. Twenty-seven (27) healthy volunteers received a single administration of 30 mg orismilast, and 9 subjects received multiple administrations over a period of 17 days with an up-titration up to a maximum of 60 mg BID. Part 1 of this study was to evaluate the key PK parameters of the new modified-release formulation compared to the reference capsule formulation with immediate release. Orismilast was rapidly absorbed from both formulations with median tmax values of 3.00 hours post-dose for the immediate-release capsule and 2.52 hours post-dose for the modified-release tablet. The individual tmax ranges were approximately 1 to 6 hours post-dose for the immediate-release capsule and 1 to 4 hours post-dose for the modified-release tablet. […]

The test system of data set [2] is PDE4B and PDE4D subtype splice variants. Briefly: PDE4 inhibition in vitro. The format is biochemical.
For another data set, the system named is healthy volunteers. Briefly: Clinical trial LP0058-1442 (phase 1, NCT03812198): safety and tolerability in healthy volunteers. In kind it is in vivo. The procedure: The safety, tolerability, and PK of orismilast MR and IR formulations were tested in a phase 1 clinical trial (NCT03812198) on healthy volunteers. Participants were randomised (3:1) to received orismilast MR or placebo (n=12). Orismilast MR was administered twice-daily for a total of 17 days. Orismilast MR was initiated at 10 mg twice-daily on days 1-2, increased to 20 mg twice-daily on days 3-4, to 30 mg twice-daily on days 5-6, to 40 mg twice-daily on days 7-8, to 50 mg twice-daily on days 9-10, and finally to 60 mg twice-daily on days 11-17.
Twenty-seven (27) healthy volunteers received a single administration of 30 mg orismilast, and 9 subjects received multiple administrations over a period of 17 days with an up-titration up to a maximum of 60 mg BID. Part 1 of this study was to evaluate the key PK parameters of the new modified-release formulation compared to the reference capsule formulation with immediate release.
In that study, patients received orismilast 30 mg BID immediate release or placebo for 16 weeks.

Data set [3] concerns TNF-α secretion from human whole blood. The settings on record: in vitro; cited from earlier work.

Structures are written as SMILES.

`O=C(Cc1c(Cl)c[n+]([O-])cc1Cl)c1ccc(OC(F)F)c2c1OC1(CCS(=O)(=O)CC1)O2` [orismilast, 2-(3,5-dichloro-1-oxidopyridin-1-ium-4-yl)-1-[7-(difluoromethoxy)-1′,1′-dioxospiro[1,3-benzodioxole-2,4′-thiane]-4-yl]ethanone]: in data set [1], the “efficacy in psoriasis on each predefined endpoint” value is listed as “confirmed” and the “patients withdrawn from the trial because of tolerability issues” value is recorded as “half”. Besides, the “inhibition of the PDE4 isoforms PDE4D3 and PDE4B2” value in data set [2] is on record as “selective inhibitor”. The “number of adverse events of headache at the 40-mg dose level” value with healthy volunteers (40-mg dose level) was determined as 6. In the data set on healthy volunteers (dose equal or lower to 40 mg), the “number of participants with nausea at a dose equal or lower to 40 mg” value is given as 2. Also, in the data set with healthy volunteers (modified-release tablet, healthy volunteers), the maximal tolerated dose is 40 mg BID. For the same compound, in the data set on healthy volunteers (subjects receiving orismilast, up-titration up to 60 mg BID), the “number of adverse events of headache” value is reported as 14. Moreover, in the data set with healthy volunteers (up-titration up to 60 mg BID, 9 subjects), the “number of subjects with nausea” value stood at 5. Moreover, the “production of tumour necrosis factor α (TNFα) in human whole blood and PBMC” value in data set [3] is “inhibited”.

Values taken from US12409172B2, “Dosage regimen” (UNION therapeutics A/S, priority 2023, dated 2025).
